Laboratory results published in patent US9029394B2, “2-phenyl-4-quinolones as anticancer agents” (China Medical University, priority 2006, dated 2015).
Structures can show the parent of a compound that is named as a salt. Where two headings read alike, the source gives them in different places.

Key:
[1] = system: NCI-H226 non-small cell lung cancer cell line; assay: Cytotoxic activity, MTT assay, NCI-H226; assay type: cell-based, human; conditions: 48 h, 50% growth-inhibitory effect
Protocol: (§1) Cells were seeded in a 24-well microtiter plate (2×10^4 cells/well) overnight, then treated with DMSO (Control) or various concentrations of test compounds, and incubated for 48 hours. The effect of test compounds on cell growth was examined by the MTT (3-(4,5-dimethylthiazol-2-yl)-2,5-diphenyl tetrazolium bromide) assay. Briefly, 40 μl of MTT solution (2 mg/ml, Sigma Chemical Co.) was added to each well to make a final volume of 500 μl and incubated for 1 h at 37° C. The supernatant was aspirated, and the MTT-formazan crystals formed by metabolically viable cells were dissolved in 200 μl of DMSO. Finally, the absorbance at O.D. 550 nm was detected by enzyme-linked immunosorbent assay (ELISA) reader.

[2] = system: Hep G2 hepatoma cancer cell line; assay: Cytotoxic activity, MTT assay, Hep G2; assay type: cell-based, human; conditions: 48 h, 50% growth-inhibitory effect
Protocol: as §1

[3] = system: A549 lung cancer cell line; assay: Cytotoxic activity, MTT assay, A549; assay type: cell-based, human; conditions: 48 h, 50% growth-inhibitory effect
Protocol: as §1

[4] = system: HCT-116 colon cancer cell line; assay: Cytotoxic activity, MTT assay, HCT-116; assay type: cell-based, human; conditions: 48 h, 50% growth-inhibitory effect, read-out: IC50 HCT116
Protocol: as §1

[5] = system: A498 renal cancer cell line; assay: Cytotoxic activity, MTT assay, A498; assay type: cell-based, human; conditions: 48 h, 50% growth-inhibitory effect
Protocol: as §1

[6] = system: HL-60 leukemia cancer cell line; assay: Cytotoxic activity, MTT assay, HL-60; assay type: cell-based, human; conditions: 50% growth-inhibitory effect
Protocol: as §1

[7] = system: MCF-7 cells; assay: Cell viability assay (MTT assay), MCF-7; conditions: 0.125 to 10 μM, 48 hours; dose-dependent decrease of cell viability
Protocol: as §1

[8] = system: CT-26 tumor cells; assay: CT-26 intraperitoneal tumor model; assay type: in vivo, mice; conditions: for day post challenge by which all mice were dead: excipient control all dead 40 days after
Protocol: 30 male 6-week-old Balb/c mice, were purchased from the National Animal cancer and maintained in pressurized ventilated cage according to institutional regulations. CT-26 (1×10^6) cells were injected into peritoneal cavities at day 0. Animals were randomly assigned to anti-tumoral efficacy study (n=10). Seven days after tumor inoculation, oral administration of 5 and 10 mg/kg of I-1-b (QD for seven times) to the mice was carried out. The survival rate and body weight of the animals was monitored.

[9] = Homo sapiens, Table 2, HL-60 cells, 48 h, read-out: IC50

Structure (SMILES) | cytotoxicity against MCF-7 cells (cell viability, MTT) [7] | melting point | IC50 [6, 9] | other results
O=c1cc(-c2ccc[se]2)[nH]c2cc3c(cc12)OCO3 [Compound I-7-d, 2-(2′-Selenophenyl)-6,7-(methylenedioxy)-4-quinolone] | – | – | – | IC50 [1]: 4.9 µM; IC50 [2]: 4.1 µM; IC50 [3]: 8.1 µM; IC50 [4]: 0.9 µM; IC50 [5]: 2.7 µM; IC50 ([6]; Table 1, 48 h, read-out: IC50 HL-60): 0.5 µM
O=P(O)(O)Oc1cc(-c2ccccc2)nc2ccc(F)cc12 [Compound I-3-b, 6-Fluoro-2-phenylquinolin-4-yl-phosphate] | significant cytotoxicity | > 300 °C | – | –
O=P(O)(O)Oc1cc(-c2ccccc2)nc2ccccc12 [Compound I-4-b, 2-Phenylquinolin-4-yl-phosphate] | significant cytotoxicity | – | – | –
CCN(CC)Cc1cccc(-c2cc(=O)c3cc(OC)ccc3[nH]2)c1 [Compound I-10-f, 2-{3-[(Diethylamino)methyl]phenyl}-6-methoxyquinolin-4(1H)-one] | – | – | > 50 µM | –
CCN(CC)Cc1ccc2[nH]c(-c3ccccc3)cc(=O)c2c1 [Compound I-8-e, 6-[(Diethylamino)methyl]-2-phenylquinolin-4(1H)-one] | – | – | 15 µM | –
CCN(CC)Cc1ccc2[nH]c(-c3ccccc3F)cc(=O)c2c1 [Compound I-9-e, 6-[(Diethylamino)methyl]-2-(2-fluorophenyl)quinolin-4(1H)-one] | – | – | 5.8 µM | –
O=P(O)(O)Oc1cc(-c2cccc(F)c2)nc2cc3c(cc12)OCO3 [Compound I-2-b, 2-(3′-Fluorophenyl)-6,7-methylenedioxyquinolin-4-yl-phosphate] | significant cytotoxicity | > 300 °C | – | –
COc1ccc2nc(-c3cccc(F)c3)cc(OP(=O)(O)O)c2c1 [Compound I-5-b, 6-Methoxy-2(3-′fluorophenyl)-quinolin-4-yl-phosphate] | significant cytotoxicity | > 300 °C | – | –
O=P(O)(O)Oc1cc(-c2ccccc2F)nc2cc3c(cc12)OCO3 [Compound I-1-b, 2-(2′-Fluorophenyl)-6,7-methylenedioxyquinolin-4-yl-phosphate] | significant cytotoxicity | – | – | average life span prolonged by ([8]; 5 mg/kg/day QD×7): 120%; day post challenge by which all mice were dead ([8]; 5 mg/kg/day QD×7): ≤ 45 days; average life span prolonged by ([8]; 10 mg/kg/day QD×7): 140%; day post challenge by which all mice were dead ([8]; 10 mg/kg/day QD×7): ≤ 50 days; maximally tolerated dose ([8]; Balb/c mice, oral, up to 10 mg/kg/day QD×7): not achieved
O=P(O)(O)Oc1cc(-c2ccccc2)nc2ccccc12 (as salt: phosphate) [Compound I-4-b, 2-Phenylquinolin-4-yl-phosphate] | – | > 300 °C | – | –
